The text below walks through data of ChEMBL document CHEMBL3045593, “Synthesis and Fungicidal Activities of 3-(-Alkoxyiminobenzyl)isoxazole Derivatives” (J Pestic Sci, 1999).

Assay [1] relates to Blumeria graminis f. sp. tritici. Put plainly: Fungicidal activity against Blumeria graminis f. sp. triticii inoculated on wheat seedlings followed by 7.8 ppm compound application 7 days after fungal inoculation assessed as wheat powdery mildew disease controlling activity relative to untreated control. In kind it is functional.
In assay [2] the test system is Oculimacula yallundae. Briefly: Fungicidal activity against Oculimacula yallundae assessed as inhibition of mycelial growth. The class given is functional, organism-based.
The subject of assay [3] is Golovinomyces cichoracearum. Put plainly: Fungicidal activity against Golovinomyces cichoracearum in cucumber seedlings assessed as cucumber powdery mildew disease controlling activity at 7.8 ppm applied through preventive application relative to untreated control. The class given is functional.
Assay [4] has as its system Blumeria graminis f. sp. tritici. Put plainly: Fungicidal activity against Blumeria graminis f. sp. triticii inoculated on wheat seedlings followed by 125 ppm compound application 7 days after fungal inoculation assessed as wheat powdery mildew disease controlling activity relative to untreated control. The class given is functional.
The test system is the same in assay [5]. Put plainly: Fungicidal activity against Blumeria graminis f. sp. triticii inoculated on wheat seedlings followed by 125 ppm compound application 7 days after fungal inoculation assessed as infected leaf area (reference value: 37.8%). The class given is functional.
For assay [6] the test system is unchanged. Briefly: Fungicidal activity against Blumeria graminis f. sp. triticii inoculated on wheat seedlings followed by 500 ppm compound application 7 days after fungal inoculation assessed as wheat powdery mildew disease controlling activity relative to untreated control. In kind it is functional.
Assay [7] has as its system Golovinomyces cichoracearum. Briefly: Fungicidal activity against Golovinomyces cichoracearum in cucumber seedlings assessed as cucumber powdery mildew disease controlling activity at 500 ppm applied through preventive application relative to untreated control. In kind it is functional.
In assay [8] the test system is Blumeria graminis f. sp. tritici. Put plainly: Fungicidal activity against Blumeria graminis f. sp. triticii inoculated on wheat seedlings followed by 31.3 ppm compound application 7 days after fungal inoculation assessed as wheat powdery mildew disease controlling activity relative to untreated control. In kind it is functional.
Assay [9] has as its system Golovinomyces cichoracearum. Put plainly: Fungicidal activity against Golovinomyces cichoracearum in cucumber seedlings assessed as cucumber powdery mildew disease controlling activity at 31.3 ppm applied through preventive application relative to untreated control. In kind it is functional.
Assay [10] concerns Blumeria graminis f. sp. tritici. Briefly: Fungicidal activity against Blumeria graminis f. sp. triticii inoculated on wheat seedlings followed by 400 ppm compound application 7 days after fungal inoculation assessed as wheat powdery mildew disease controlling activity relative to untreated control. The class given is functional.
The test system is the same in assay [11]. Briefly: Fungicidal activity against Blumeria graminis f. sp. triticii inoculated on wheat seedlings followed by 100 ppm compound application 7 days after fungal inoculation assessed as infected leaf area (reference value: 37.8%). The class given is functional.
For assay [12] the test system is unchanged. Briefly: Fungicidal activity against Blumeria graminis f. sp. triticii inoculated on wheat seedlings followed by 100 ppm compound application 7 days after fungal inoculation assessed as wheat powdery mildew disease controlling activity relative to untreated control. In kind it is functional.
Assay [13] concerns Oculimacula yallundae. Put plainly: Fungicidal activity against Oculimacula yallundae inoculated oat seeds followed by transfer of inoculated oat seedlings on foot of wheat seedlings followed by 100 ppm compound spraying assessed as degree of wheat eye spot infection (reference value: 82.9 %). In kind it is functional.
For assay [14], the system named is Oculimacula yallundae. Put plainly: Fungicidal activity against Oculimacula yallundae inoculated oat seeds followed by transfer of inoculated oat seedlings on foot of wheat seedlings followed by 400 ppm compound spraying assessed as degree of wheat eye spot infection (reference value: 82.9 %). In kind it is functional.
Assay [15] relates to Oculimacula yallundae. Briefly: Fungicidal activity against Oculimacula yallundae inoculated oat seeds followed by transfer of inoculated oat seedlings on foot of wheat seedlings followed by 400 ppm compound spraying assessed as wheat eye spot disease control activity relative to untreated control. In kind it is functional.
The test system of assay [16] is Blumeria graminis f. sp. tritici. Put plainly: Fungicidal activity against Blumeria graminis f. sp. triticii inoculated on wheat seedlings followed by 400 ppm compound application 7 days after fungal inoculation assessed as infected leaf area (reference value: 37.8%). In kind it is functional.
Assay [17] concerns Oculimacula yallundae. Put plainly: Fungicidal activity against Oculimacula yallundae inoculated oat seeds followed by transfer of inoculated oat seedlings on foot of wheat seedlings followed by 100 ppm compound spraying assessed as wheat eye spot disease control activity relative to untreated control. The class given is functional.
Assay [18] has as its system Golovinomyces cichoracearum. Put plainly: Fungicidal activity against Golovinomyces cichoracearum in cucumber seedlings assessed as cucumber powdery mildew disease controlling activity at 125 ppm applied through preventive application relative to untreated control. The class given is functional.

For the compound `CON=C(c1ccon1)c1ccccc1COc1cc(C)cc(C)c1C`, the Activity in [1] and in assay [3] was 90% in each case. For the same compound, the EC50 in assay [2] is reported as 3.9 ppm.

On to `CC(C)(C)C(=O)C(Oc1ccc(Cl)cc1)n1cncn1` (stereo not drawn) [TRIADIMEFON], for which the Activity is 97% in assay [4] and 1.4% in assay [5].

In the case of `CON=C(c1ccon1)c1ccccc1COc1ccccc1[N+](=O)[O-]`, the Activity in assay [6] and in [7] was below 90% in each case.

`CON=C(c1ccon1)c1ccccc1COc1ccc(Cl)cc1C`: the Activity in assay [8] and in assay [3] was 90% in each case.

Regarding `CON=C(c1ccon1)c1ccccc1COc1ccccc1Br`, the Activity in [4] and in [3] was 90% in each case.

Turning to `CON=C(c1ccon1)c1ccccc1COc1ccc(F)cc1F`, the Activity in assay [4] and in [3] was 90% each time.

For the compound `CON=C(c1ccon1)c1ccccc1COc1ccccc1F`, the Activity in [4] and in [9] was 90% throughout.

Turning to `CON=C(c1ccon1)c1ccccc1COc1cccc(C)c1`, the Activity in assay [4] and in assay [9] was 90% each time.

Turning to `CON=C(c1ccon1)c1ccccc1COc1ccc(C)cc1C`, the Activity in assay [4] and in [3] was 90% in each case.

Consider `CON=C(c1ccon1)c1ccccc1COc1ccc(Cl)cc1Cl`, for which the Activity in [6] is below 90%; in [3] it was 90%.

Take `CNC(=O)/C(=N/OC)c1ccccc1COc1cc(C)ccc1C`: the Activity was 63% in [10]; 13% in assay [11]; 69% in [12]; 66.5% in assay [13]; 36.7% in [14]; 56% in assay [15]. Moreover, the Activity came out at 15.5% in assay [16] and 20% in [17]. Also, the EC50 in assay [2] was found to be 1.09 ppm.

In the case of `CON=C(c1ccon1)c1ccccc1COc1cc(F)ccc1F`, the Activity in [4] and in assay [9] was 90% in each case.

As for `CON=C(c1ccon1)c1ccccc1COc1ccc(C)c(C)c1`, the Activity in assay [4] and in assay [9] was 90% in each case.

`CON=C(c1ccon1)c1ccccc1COc1ccccc1OC`: the values for the Activity in [6] and in assay [18] were below 90% and 90%, respectively.

For the compound `CCc1ccccc1OCc1ccccc1C(=NOC)c1ccon1`, the Activity in assay [4] and in assay [9] was 90% in each case.

Take `C=CCON=C(c1ccon1)c1ccccc1COc1cc(C)ccc1C`: the Activity in [6] and in assay [7] was below 90% in each case.

With `CON=C(c1ccon1)c1ccccc1COc1ccccc1C`, the Activity in assay [1] and in assay [3] was 90% each time. Moreover, the EC50 in assay [2] is 1.42 ppm.

Regarding `CON=C(c1ccon1)c1ccccc1COc1cc(Cl)cc(Cl)c1Cl`, the Activity in [6] is on record as below 90%; in [7] it was 90%.

Take `CON=C(c1ccon1)c1ccccc1COc1c(Cl)cccc1Cl`: the values for the Activity in assay [6] and in [9] were below 90% and 90%, respectively.

In the case of `CON=C(c1ccon1)c1ccccc1OCc1ccccc1`, in assay [18], the Activity is given as 90%.

For the compound `CON=C(c1ccon1)c1ccccc1Oc1ccccc1`, the Activity in [6] and in assay [9] was 90% each time.

As to `CON=C(c1ccon1)c1ccccc1COc1ccc(Cl)cc1`, the Activity in [6] and in assay [3] was 90% in each case.

For `CON=C(c1ccon1)c1ccccc1COc1ccccc1C(F)(F)F`, the Activity in [6] and in assay [9] was 90% throughout.

As to `CON=C(c1ccon1)c1ccccc1COc1ccc(Cl)c(Cl)c1`, the Activity in [4] and in assay [9] was 90% in each case.

With `CON=C(c1ccon1)c1ccccc1COc1cccc(Cl)c1`, the Activity in [6] and in assay [9] was 90% each time.

Regarding `CON=C(c1ccon1)c1ccccc1COc1ccc(F)cc1`, the Activity in assay [6] and in assay [9] was 90% in each case.

For `CON=C(c1ccon1)c1ccccc1COc1ccc(C)cc1`, the Activity in [4] and in [3] was 90% in each case.

On to `CON=C(c1ccon1)c1ccccc1COc1c(C)cccc1C`, for which the Activity in assay [4] and in [18] was 90% throughout.

Take `CON=C(c1ccon1)c1ccccc1COc1cccc(C)c1C`: the Activity in [4] and in assay [3] was 90% throughout.

With `CCCON=C(c1ccon1)c1ccccc1COc1cc(C)ccc1C`, the Activity in assay [6] and in [7] was below 90% each time.

On to `Cc1ccc(C)c(OCc2ccccc2C(=NO)c2ccon2)c1`, for which the values for the Activity in [6] and in assay [18] were below 90% and 90%, respectively.

Take `CON=C(c1ccon1)c1ccccc1COc1ccccc1Cl`: the Activity in assay [4] and in [3] was 90% in each case.

Take `Cc1ccc(C)c(OCc2ccccc2C(=NOC(C)C)c2ccon2)c1`: the Activity in assay [6] and in assay [7] was below 90% throughout.

In the case of `CON=C(c1ccon1)c1ccccc1COc1cc(C)ccc1C`, the Activity in assay [10] is 86%; in assay [11], 9.3%; in [12], 78%; in assay [13], 36.9%; in assay [1] it was 90%; in assay [14] it was 19.8%. The Activity in [15] stood at 76%; in assay [16], 5.8%; in [17], 56%; in [3] it was 90%. Also, the EC50 in assay [2] came out at 1.05 ppm.

As to `CON=C(c1ccon1)c1ccccc1COc1ccccc1`, the Activity in [6] and in [9] was 90% throughout.

As to `CCON=C(c1ccon1)c1ccccc1COc1cc(C)ccc1C`, the Activity in assay [6] and in assay [7] was below 90% in each case.

In the case of `CCCN(CCOc1c(Cl)cc(Cl)cc1Cl)C(=O)n1ccnc1` [PROCHLORAZ], the Activity in assay [13] amounted to 63.5%; in [14], 28.3%; in assay [15], 66%; in assay [17] it was 23%. For the same compound, the EC50 in assay [2] was found to be 0.04 ppm.

As to `CON=C(c1ccon1)c1ccccc1COc1cccc(F)c1`, the Activity in assay [6] and in [18] was 90% each time.

In the case of `CON=C(c1ccon1)c1ccccc1COc1cc(Cl)ccc1Cl`, the Activity in assay [8] and in assay [3] was 90% throughout.
